Measurements: patent publication US20260318831A1 (University of Cincinnati, priority 2023, published 2026)

Tests used:
[1] = UV-visible absorption of PyQPMe in aqueous buffers pH 4.0-8.0; type: physicochemical
From the text: In some aspects, the fluorescence of the probe changes as the pH of an endolysosome changes, such as between a pH range of about 8.0 to about 2.0. With the designed probe PyQPMe in hand, its UV-visible absorption was screened in aqueous buffers with a pH range of 8.0 to 4.0. […] Simultaneously, a new absorption maximum at 447 nm (ε=27,264 M^−1 cm^−1) rises with its tail exceeding 600 nm in pH 4.0 buffer solution. […] In addition, the fluorescence intensities of PyQPMe used for different imaging channels of the microscope were compared, where the wavelengths of 500 nm and 645 nm represent the green and red channels, respectively. When the buffer solution is much more acidic, the fluorescence intensity ratio of I645 nm/I500 nm is higher than 1 (FIG. 2C), indicating red color dominates the fluorescence of PyQPMe. Conversely, with increasing the pH value, green fluorescence light is becoming the predominant color for imaging.
Phosphate buffer solution. A series of standard pH buffer solutions were prepared by mixing 0.2 M Na2HPO4·7H2O, 0.2 M KH2PO4, and 0.2 M H3PO4 with varied volume ratios, and the pH values were measured by using a Mettler Toledo pH-meter.
Absorption and emission measurements. 3.0 mL phosphate buffer solution and 6.44 μL probe stock solution (4.66 mM) were mixed well, and an appropriate portion of the solution was transferred to a quartz cell with 1 cm optical length to collect the absorption spectra on an Agilent Cary 453 spectrophotometer. The fluorescence spectra were recorded on a HORIBA Fluorolog QM spectrofluorometer.

[2] = Photostability under irradiation in neutral and acidic solutions; type: physicochemical; settings: 300 s irradiation
From the text: Next, the effect of potential biochemical species on the fluorescence intensity of PyQPMe in both pH 3.0 and 8.2 buffer solutions was investigated. […] Fluorescence spectra of PyQPMe in various solvents with different polarities were also obtained. […] Furthermore, the photostability of PyQPMe was investigated under different pH conditions. […] Taken together, the above photophysical results identify that PyQPMe is a pH-sensitive probe, well suited for studying endolysosome dynamics via high-resolution imaging techniques.

[3] = system: endolysosomes in HeLa cells; test: Resolution limit in LIGHTNING confocal images; type: cell-based
From the text: The fluorescence images of PyQPMe were compared before and after the LIGHTNING module. […] To test the resolution limit of PyQPMe, confocal images were stochastically selected, and underlined the areas with luminescence in the images (FIG. 4A, 4C). The FWHMs (full width at half maximum) of these bright puncta fluorescence of PyQPMe-stained endolysosomes and later endosomes/lysosomes are down to 174 nm and 184 nm (FIG. 4B, 4D), respectively.
(§1) Leica Stellaris 8 Confocal imaging. High-resolution images were acquired on a commercial Leica Stellaris 8 Confocal Microscope under LIGHTNING mode. Laser powers were set at 10% intensity for 405 nm and 640 nm channels. The objective was 63×/1.4. High-resolution images were captured from the randomly selected field of view and analyzed with Leica LAS X and ImageJ software. All the images were exported on the Auto scale of the Leica LAS X software. Cells were seeded on glassed-bottomed cell dishes (MatTek) for 24 hours. Cells stained with PyQPMe (20 nM, 10 min) were treated with Wortmannin (1 μM, 24 h), CCCP ([…], 24 h), rapamycin (0.5 μM, 24 h), chloroquine (25 μM, 30 min), and NH4Cl (50 mM, 30 min). All PCC values were analyzed in the CellProfiler.

HeLa cells = test: Background fluorescence / signal-to-noise comparison with LysoTracker Red; type: cell-based; settings: compared with LTR, same imaging conditions
From the text: Since PyQPMe has a large Stokes shift and strong fluorescence intensity, it can effectively reduce the background noise caused by excitation light and microenvironments. To illustrate this merit, the commercial lysosome dye (LysoTracker Red, LTR) was selected for comparison. Two different regions of the background were randomly chosen in each fluorescence image and plotted their 3D fluorescence intensity distribution maps, as shown in FIG. 4E.
as §1

[4] = system: endolysosomes in HeLa cells; test: Dynamics of PyQPMe-stained endolysosomes (puncta counting); type: cell-based
Experimental: FIGS. 5A-5H depict the characterization of dynamics of PyQPMe-stained endolysosomes. FIG. 5A. Confocal images of HeLa cells stained with PyQPMe following treatment with or without Wortmannin for 24 h. FIG. 5B. Schematic illustration of the effect of Wortmannin which inhibits the conversion from early endosomes into late endosomes. FIG. 5C. Quantification of total endolysosomes and late endosomes/lysosomes in PyQPMe-stained HeLa cells with or without Wortmannin treatment. FIG. 5D. The ratio of the number of late endosomes/lysosomes to total endolysosomes in PyQPMe-stained HeLa cells treated with or without Wortmannin. FIG. 5E. Confocal images of HeLa cells stained with PyQPMe for 10 min and 60 min. FIG. 5F. The mean red puncta fluorescence intensity of PyQPMe-stained HeLa cells for 10 min and 60 min incubation. FIG. 5G. Quantification of total endolysosomes and late endosomes/lysosomes in PyQPMe-stained HeLa cells for 10 min and 60 min. FIG. 5H. The ratio of the number of late endosomes/lysosomes to total endolysosomes in PyQPMe-stained HeLa cells for 10 min and 60 min. Data are given as M±SEM (n=10 independent samples from 10 cells for each statistical analysis); the statistical differences were analyzed by Student's t-test, p<0.05 is considered to statistical significant (** p≤0.01; *** p≤0.001; **** p≤0.0001; ns p>0.05).
Because of the popularity of quantitative cell biology, it is important to design powerful tools that can digitize individual cells and subcellular organelles to elucidate biological problems in detail. With its great pH response, long-term photostability, and excellent signal-to-noise ratio for high-resolution imaging, PyQPMe was successfully used to track the dynamics of endolysosomes within cells by counting the number of puncta fluorescence signals in both green and red channels (FIG. 5A).
Next, the effects of different incubation time on the endocytic pathway were tested.
as §1

- pKa ([1]; aqueous buffers, from absorption at 394 and 447 nm, pH 8.0 to 4.0, read-out: apparent pKa value): ~5
- absorption maximum ([1]; neutral condition): 394 nm
- ε at absorption maximum 394 nm ([1]; neutral condition): 34,147 M^−1cm^−1
- new absorption maximum ([1]; pH 4.0 buffer solution): 447 nm
- ε at absorption maximum 447 nm ([1]; pH 4.0 buffer solution): 27,264 M^−1 cm^−1
- photostability: change of fluorescence intensity [2]: negligible change
SMILES: CN1CCN(c2ccc(/C=C/c3ccc4cc(-c5ccncc5)ccc4[n+]3C)cc2)CC1 [PyQPMe, (E)-1-methyl-2-(4-(4-methylpiperazin-1-yl)styryl)-6-(pyridin-4-yl)quinolin-1-ium]
- FWHM of puncta, endolysosomes ([3]; PyQPMe-stained endolysosomes): 174 nm
- FWHM of puncta, late endosomes/lysosomes ([3]; PyQPMe-stained late endosomes/lysosomes): 184 nm
- background fluorescence of confocal images (HeLa cells): significantly reduced
- signal-to-noise ratio (HeLa cells): better than that of LTR
- intensity of puncta fluorescence in red channel ([4]; 60 min vs 10 min incubation): increased during 60 min incubation
- number of total endolysosomes and late endosomes/lysosomes detected ([4]; 60 min vs 10 min incubation): more PyQPMe-stained total endolysosomes and late endosomes/lysosomes were simultaneously detected
- percentage of late endosomes/lysosomes in total endolysosomes ([4]; regardless of incubation time (10 min, 60 min)): remained stable
